Non-standard residues stand in square brackets, D forms with d. Residues, ends and D or L forms follow the SMILES beside them. No end group written: not given here. Dmt = Cc1cc(O)cc(C)c1C[C@H](N)C(=O)O
How the values were obtained:
[1] = target: mu-opioid receptor (Homo sapiens, UniProt P35372); assay: Mu-opioid receptor agonist activity; conditions: stated without a test
[2] = test system: several mammalian cell types; conditions: energy-independent manner (Zhao, et al., 2003); cited from earlier work
[3] = test system: fibroblasts from Friedreich's ataxia (FRDA) patients; conditions: 1-10 μM peptide 24 hours, then 5 μm Fe/HQ for 5 hours
Procedure: Iron with hydroquinone (HQ) induces oxidative stress in cells because HQ forms a lipophilic chelate with iron and rapidly transfers the metal across the normally impermeable plasma membrane.
After 24 hours, the media is changed and the cells are treated with 5 μm Fe/HQ for 5 hours.

Sequence of mu-opioid receptor (P35372 whole entry, species assumed): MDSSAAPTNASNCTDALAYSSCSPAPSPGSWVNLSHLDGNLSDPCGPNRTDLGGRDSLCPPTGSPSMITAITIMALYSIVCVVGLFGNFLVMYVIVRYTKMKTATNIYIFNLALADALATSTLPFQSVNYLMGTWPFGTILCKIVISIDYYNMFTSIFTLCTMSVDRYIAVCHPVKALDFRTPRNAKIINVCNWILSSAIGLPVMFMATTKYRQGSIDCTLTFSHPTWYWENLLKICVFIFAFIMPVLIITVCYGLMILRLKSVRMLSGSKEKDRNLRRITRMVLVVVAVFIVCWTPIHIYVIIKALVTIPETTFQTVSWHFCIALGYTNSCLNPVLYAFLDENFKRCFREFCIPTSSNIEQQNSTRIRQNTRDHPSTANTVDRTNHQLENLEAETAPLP

F[dR]FK-NH2
mu-opioid receptor agonist activity [1]: does not have mu-opioid receptor agonist activity

Tyr-D-Arg-Phe-Lys-NH2
mu-opioid receptor agonist activity [1]: has mu-opioid receptor agonist activity

2′,6′-Dmt-D-Arg-Phe-Lys-NH2
penetration of the plasma membrane [2]: readily penetrates the plasma membrane

Cc1cc(O)cc(C)c1C[C@H](NC(=O)[C@H](N)CCCNC(=N)N)C(=O)N[C@@H](CCCCN)C(=O)N[C@@H](Cc1ccccc1)C(N)=O [D-Arg-2′,6′-Dmt-Lys-Phe-NH2] (H-[dR][Dmt]KF-NH2)
survival and cytotoxicity by morphologic appearance [3]: reduced evidence of cytotoxicity

From patent publication US11672841B2, “Methods for treating heart disease in a subject with Friedreich's ataxia by an aromatic-cationic peptide” (Stealth BioTherapeutics Inc., priority 2013, dated 2023)
